The values below come from article PMC9616048, “Thermal proteome profiling reveals Haemonchus orphan protein HCO_011565 as a target of the nematocidal small molecule UMW-868” (Frontiers in Pharmacology, 2022).

Where only a bound is given, the exact number is not on record here.

Assay [1] concerns exsheathed third-stage larvae (xL3s) of H. contortus. Put plainly: High throughput screen, xL3 motility (infrared light beam-interference). Conditions: Haemonchus contortus, 90 h, read-out: Motility reduction at 90 h (%). The assay is classed as cell-based. The method, then:
An established platform was used for compound screening ([Taki et al., 2021a]). Using a semi-automated liquid handling robot (VIAFLO ASSIST PLUS, Integra Biosciences), compounds were individually diluted to […] in LB* containing 0.2% (v/v) DMSO and then dispensed in 20 µl into the wells of sterile 384-well flat bottom microtitre plates (cat. no. 3680; Corning); 320 compounds were arrayed on each plate, with 16 wells being negative controls (with LB* + 0.2% DMSO) and four wells containing each monepantel (Zolvix; Elanco), moxidectin (Cydectin; Virbac), monepantel + abamectin (Zolvix Plus; Elanco) and compound MIPS-0018666 (abbreviated here as M-666) ([Le et al., 2018]) as positive controls (20 µM). Following the dilution and dispensing of compounds into plates, 80 H. contortus xL3s in 20 μl of LB* were transferred to individual wells; after this step, the final concentrations were 20 µM of test- or positive-control compound, and 0.2% of DMSO. During dispensing, xL3s were maintained in a homogenous suspension using a constant stream of bubbles produced employing an aquarium pump (H2Pro). Plates containing H. contortus xL3s were incubated at 38 °C, 10% (v/v) CO2 and >90% relative humidity.
After 90 h of incubation with compounds (20 μM), H. contortus xL3s motility was measured for 15 min in individual wells of each plate by infrared light beam-interference ([Simonetta and Golombek, 2007]) using a WMicroTracker ONE instrument (Phylumtech). Raw data captured were normalised against measurements obtained for the positive (monepantel) and negative (LB* + 0.2% DMSO) controls to remove plate-to-plate variation by calculating the percentage of motility using the program GraphPad Prism (v.9.1.2; GraphPad Software). A compound was considered active (“hit”) if it reduced larval motility by ≥ 70%. To continually assess the performance of the screening assay, the Z′-factor ([Zhang et al., 1999]) was calculated (using data for the DMSO and the M-666 controls) for individual plates (n = 43) and was consistently ≥0.7; reliable assays achieve a Z′-factor of between 0.5 and 1. The signal to background (S/B) ratio (for the same controls) ([Sui and Wu, 2007]) was consistently >200.

A further assay relates to eggs of H. contortus. Put plainly: Egg hatch assay. The format is cell-based. As to conditions: Haemonchus contortus, 48 h; read-out: Egg hatch inhibition (IC50 in µM). The method, then: Compounds were also assessed for their effect on the hatching of eggs of H. contortus in vitro. To do this, eggs were isolated from the faeces from sheep with patent (30 day-) H. contortus infection by sucrose flotation ([Mes et al., 2007]). Eggs were suspended in H2O at a concentration of one egg per µl. The eggs were dispensed into wells (in triplicate; 100 eggs per well) and incubated with two-fold serial dilutions (9 points from 50 μM to 0.2 µM in H2O) of individual test or control compounds for 48 h at 27°C and >90% relative humidity; wells with no compound were also included. The numbers (percentages) of eggs from which first-stage larvae (L1s) hatched were counted using a light microscope (M80, Leica) at a 40-times magnification. With reference to positive-control compounds (i.e., monepantel and moxidectin), IC50 values of compounds were calculated.

The subject of assay [2] is H. contortus xL3 to L4 development. The assay can be described thus: High throughput screen, larval development and phenotype at 168 h. The assay is classed as cell-based, Haemonchus contortus. The method, then:
Following the measurement of xL3 motility, plates were incubated again for 78 h (i.e., a total of 168 h) under the same conditions. Thereafter, 40 µl of 1% (v/v) iodine were added to individual wells, and worms examined using a light microscope (M80, Leica) at 60-times magnification to assess larval development, based on the presence/absence of a well-developed pharynx ([Sommerville, 1966]), and/or phenotypic alterations with respect to untreated xL3s.

Assay [3] has as its system H. contortus xL3s. The assay can be described thus: Cell lethality in xL3s (Sytox Green staining). The assay is classed as cell-based, Haemonchus contortus. The method, then:
Fluorescence staining was employed to assess the ability of UMW-868 to reduce the viability of H. contortus. The xL3s were dispensed in 96-well plates at a density of 300 xL3 per well, and incubated with compounds UMW-868 or A-3155, non-active analogs of UMW-868, at 50 μM at 38°C, 10% (v/v) CO2 and >90% relative humidity. After 90 h of incubation, H. contortus xL3s were stained with Sytox Green nucleic acid stain (Thermo Fisher Scientific) at the final concentration of 1 µM in LB* in the same 96-well plates and incubated for 1 h at 38°C and 10% (v/v) CO2 with >90% relative humidity. Following the incubation, the viability of larvae was evaluated by measuring the relative fluorescent units (RFU) of xL3s using an Omega FLUOstar microplate reader (BMG Labtech), with excitation and emission wavelengths set at 485 nm and 520 nm, respectively. The 96-well plates containing the stained larvae were returned to the incubator for further 78 h; after a total of 168 h of compound exposure, the stained larvae were examined under an inverted fluorescence microscope (DM IL, Leica) equipped with a green fluorescent protein filter (470/500/525 […]; Leica), and imaged using Leica Application Suite software (Leica).

Assay [4] has as its system H. contortus xL3s. Put plainly: Dose-response evaluation, xL3 motility. The format is cell-based. Conditions: Haemonchus contortus. The method, then: These evaluations were carried out to estimate the half-maximal inhibitory concentrations (IC50 values) for hit compounds against H. contortus xL3s. With reference to the two positive-control compounds (monepantel and moxidectin), IC50 values for compounds were estimated ([Preston et al., 2015]; [Taki et al., 2021a]) using two-fold serial dilution (in LB*; 9 points from 50 μM to 0.2 µM) in 96-well plates (cat. no. 3596; Corning) with larvae at a density of 300 H. contortus xL3s in 100 µl per well. Plates containing H. contortus xL3s were incubated at 38°C, 10% (v/v) CO2 and >90% relative humidity.
Compound concentrations were log10-transformed and fitted using a variable slope four-parameter equation, constraining the highest value to 100% employing a least squares (ordinary) fit model using GraphPad Prism software (v.9.1.2). Compounds were tested by three independent experiments in triplicate. A one-way analysis of variance (ANOVA) with a Tukey’s multiple comparison test or an unpaired t-test was used to establish statistically significant differences in larval motility or development.

In the case of `CCCc1ccc(-c2nc(-c3cccs3)no2)cc1` [UMW-868, 5-(4-propylphenyl)-3-(2-thienyl)-1,2,4-oxadiazole], the inhibition at 20 µM in assay [1] is 78.4%; in assay [2] (Haemonchus contortus, development to L4) it was 80 to 99%. For the same molecule, the IC50 – broadly, the concentration at which inhibition is half-maximal – in the assay with eggs of H. contortus is 6.2 µM; in the assay on H. contortus xL3s [3] (Haemonchus contortus, 90 h, read-out: IC50 (lethality, inducing cell death in xL3s)), 34.8 µM; with H. contortus xL3s [4] (90 h, xL3s, 90 h, read-out: IC50 (motility)) it was 5.6 µM; in the assay with H. contortus xL3s [4] (168 h, analog series, read-out: xL3 motility reduction (IC50 in µM)) it was 13.8 µM. Besides, in assay [2] (20 µM), the “Abnormal phenotype detected at 168 h” value is “Cur, Evi”. The “percentage of treated xL3s killed” value with H. contortus xL3s [3] (50 μM, 90 h) came to 100%. In addition, in the assay with H. contortus xL3s [3] (90 h of exposure), the “concentration at which cell death was detected in xL3s” value is recorded as > 5 µM. The “dead cells detected microscopically in xL3s (Sytox Green)” value in the assay on H. contortus xL3s [3] (168 h of exposure) is given as “dead cells could be seen throughout the larvae”.
